# Target: KV7.2/3 channel (Homo sapiens, UniProt O43525+O43526)
# Experiment: KV7.2/3 channel opening assay (thallium-sensitive fluorescence)
# Format: cell-based
# Details: HEK293 cells overexpressing KV7.2/3; footnote e
# Experimental: To evaluate the biological activity, the synthesized analogues were tested on HEK293 cells overexpressing the KV7.2/3 channel. The measurement was carried out in a fluorescence-based assay in which a thallium-sensitive dye generated the fluorescence signal. Due to its similarity to potassium, thallium can also pass through KV7 channels. The intensity of the fluorescence signal correlates with the amount of intracellular thallium and thus with the ability of the compounds to open KV7 channels. To determine the potency, the fluorescence intensity was measured as a function of the compound concentration. The efficacy was determined relative to the maximum fluorescence signal induced by flupirtine. For a summary of the activity data, see Table 2.
# The cell culture of the KV7.2/3 transfected HEK293 cells (HEK293 KCNQ2/3 cells from SB Drug Discovery, Glasgow, UK) used for the assay and the processing of the obtained data were performed as described in earlier work.[27],[29] Briefly, 60,000 cells/well were seeded into 96-well microtiter plates for fluorescence-based assays (4titude Vision Plate Black 96-Well microtiter plates from ThermoScientic) and incubated for 24 h. After incubation, the medium was changed to 200 μL/well loading buffer containing 5 mmol/L probenecid and incubated for 1 h at room temperature. Subsequently, the test compounds dissolved in DMSO were added to the wells to the desired concentrations and further incubated for 30 min. As a control, the loading buffer with a DMSO concentration corresponding to the substance samples (1% (V/V)) was used. Fluorescence measurements were performed on the Infinite F200 Pro plate reader (Tecan) set at […]/emission wavelengths of 485 and 535 nm, respectively. After measuring the background fluorescence (baseline) for 20 s, a stimulus buffer (25 mmol/L K^+, 15 mmol/L Tl^+) was added just before the fluorescence of each well was measured.
# The calculations to obtain dose–response curves were performed in the same manner as in previous investigations.[27],[29] Briefly, the fluorescence intensity was normalized with the baseline signal (F/F0) at each time of signal acquisition. To obtain the corrected negative control, a value of 1 was subtracted from the normalized value of the negative control. Subsequently, the value of the corrected negative control was subtracted from the maximum (corr. F/F0) value of a compound in a defined concentration (corr. ΔF/F0) and then plotted against the logarithmic concentration. The EC50 value was calculated as relative values with GraphPad Prism 6 (La Jolla, CA, USA), that is, the inflection points of the sigmoidal curves. The Emax value, the maximum response, indicates the intrinsic activity of a compound. This value was determined relative to flupirtine (1), where the maximum corr. ΔF/F0 value of flupirtine (1) was defined as 100%. The EC50 and Emax value of a compound is the mean of at least three independent experiments ± standard deviation (SD).
# Sequence of KV7.2/3 channel (O43526 whole entry): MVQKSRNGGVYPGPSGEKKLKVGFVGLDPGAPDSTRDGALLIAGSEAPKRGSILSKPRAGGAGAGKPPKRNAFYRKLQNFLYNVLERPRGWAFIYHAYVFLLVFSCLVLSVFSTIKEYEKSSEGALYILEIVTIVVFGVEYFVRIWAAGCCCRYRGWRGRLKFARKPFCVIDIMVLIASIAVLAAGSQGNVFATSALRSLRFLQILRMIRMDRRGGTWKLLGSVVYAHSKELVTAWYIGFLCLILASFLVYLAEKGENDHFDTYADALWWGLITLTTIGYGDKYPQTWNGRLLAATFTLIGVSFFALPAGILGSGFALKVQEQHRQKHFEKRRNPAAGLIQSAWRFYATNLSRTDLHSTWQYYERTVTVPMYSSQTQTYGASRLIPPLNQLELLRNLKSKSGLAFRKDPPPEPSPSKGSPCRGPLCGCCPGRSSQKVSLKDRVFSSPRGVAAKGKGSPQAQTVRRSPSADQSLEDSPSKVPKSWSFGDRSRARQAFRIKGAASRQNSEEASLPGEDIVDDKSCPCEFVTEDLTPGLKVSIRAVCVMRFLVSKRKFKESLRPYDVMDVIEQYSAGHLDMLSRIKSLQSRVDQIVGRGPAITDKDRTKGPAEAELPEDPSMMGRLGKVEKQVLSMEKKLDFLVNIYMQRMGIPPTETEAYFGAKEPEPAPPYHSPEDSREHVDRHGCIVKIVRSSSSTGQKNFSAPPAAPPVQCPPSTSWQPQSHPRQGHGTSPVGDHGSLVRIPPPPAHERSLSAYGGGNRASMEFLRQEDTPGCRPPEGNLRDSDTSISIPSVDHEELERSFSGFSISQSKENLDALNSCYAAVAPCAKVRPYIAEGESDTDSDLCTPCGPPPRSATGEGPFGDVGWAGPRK
# Sequence of KV7.2/3 channel (O43525 whole entry): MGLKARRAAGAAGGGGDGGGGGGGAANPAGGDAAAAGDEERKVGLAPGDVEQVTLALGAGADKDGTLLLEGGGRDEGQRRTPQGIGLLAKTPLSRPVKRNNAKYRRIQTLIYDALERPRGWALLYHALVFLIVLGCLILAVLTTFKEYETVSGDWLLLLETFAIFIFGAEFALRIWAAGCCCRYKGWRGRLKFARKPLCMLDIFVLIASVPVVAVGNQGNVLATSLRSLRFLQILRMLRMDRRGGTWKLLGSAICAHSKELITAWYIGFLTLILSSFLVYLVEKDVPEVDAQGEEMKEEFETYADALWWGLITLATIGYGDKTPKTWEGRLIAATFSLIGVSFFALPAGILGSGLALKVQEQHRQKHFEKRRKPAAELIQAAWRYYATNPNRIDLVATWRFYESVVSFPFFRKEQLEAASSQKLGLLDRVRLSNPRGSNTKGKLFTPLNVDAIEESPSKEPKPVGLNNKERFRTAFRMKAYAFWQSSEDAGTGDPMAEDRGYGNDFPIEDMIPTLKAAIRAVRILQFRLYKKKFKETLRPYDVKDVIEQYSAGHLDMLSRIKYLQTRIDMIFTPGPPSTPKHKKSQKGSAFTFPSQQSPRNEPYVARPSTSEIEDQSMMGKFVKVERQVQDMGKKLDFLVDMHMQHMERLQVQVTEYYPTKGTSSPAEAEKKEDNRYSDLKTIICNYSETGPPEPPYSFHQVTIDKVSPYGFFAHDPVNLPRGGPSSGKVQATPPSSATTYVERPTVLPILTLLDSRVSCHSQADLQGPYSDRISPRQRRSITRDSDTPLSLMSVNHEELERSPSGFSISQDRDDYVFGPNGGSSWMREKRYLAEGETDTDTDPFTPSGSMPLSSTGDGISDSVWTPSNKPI
row,SMILES,EC50
1,"Cc1cc(N2CCOCC2)nc(N2CCOCC2)c1CNC(=O)Cc1cc(F)cc(F)c1 [55b, 2-(3,5-Difluorophenyl)-N-[(4-methyl-2,6-dimorpholinopyridin-3-yl)methyl]acetamide]",> 10 µM
2,"CC(C)CNC(=O)c1ccc(NCc2ccc(F)cc2)cc1N [compound 17, 2-Amino-4-[(4-fluorobenzyl)amino]-N-isobutylbenzamide]",> 10 µM

# Same assay, conditions: inactive = no channel opening activity detected up to a concentration of 10 μM
row,SMILES,KV7.2/3 channel opening activity (in words)
1,"Cc1cc(N2CCOCC2)nc(N2CCOCC2)c1CNC(=O)Cc1cc(F)cc(F)c1 [55b, 2-(3,5-Difluorophenyl)-N-[(4-methyl-2,6-dimorpholinopyridin-3-yl)methyl]acetamide]",inactive
2,"CC(C)CNC(=O)c1ccc(NCc2ccc(F)cc2)cc1N [compound 17, 2-Amino-4-[(4-fluorobenzyl)amino]-N-isobutylbenzamide]",inactive

# System: TAMH cells
# Experiment: MTT cell viability assay, TAMH cells
# Details: TAMH cells, MTT assay, 24 h exposure; 25% reduction of viability
# Description: (§1) In addition to the activity, basic toxicological properties of the newly synthesized compounds were also investigated by using the 3-(4,5-dimethylthiazol-2-yl)-2,5-diphenyltetrazolium bromide (MTT) cell viability assay on mouse TAMH and human HEP-G2 hepatic cell lines (see Table 2). Both cell lines are established for the evaluation of hepatotoxicity.[42],[43]
# (§2) The culturing of the mouse liver TAMH and human liver cancer HEP-G2 cell lines and the MTT assay used to evaluate cell viability were carried out as previously described elsewhere in detail.[27],[29] […] The medium in the wells was then replaced with the medium containing the compounds. Control wells contained an equivalent number of cells and 1% (v/v) DMSO. Wells without cells were used to determine the background optical density (OD) and were treated as the control wells. After 24 or 48 h of incubation with the compound, the respective medium was replaced with a fresh medium supplemented with 10% (v/v) of a 2.5 mg/mL solution of MTT. The plates were incubated for 4 h. Then, the culture medium was carefully aspirated off and 50 μL of DMSO was added to each well to dissolve the formazan crystals. The ODs of each well were measured at λ = 570 nm with a SpectraMax 190 microplate reader.
# (§3) The calculated T/Ccorr. values were plotted against the log(concentration). The LD50 and LD25 values were determined by using GraphPad Prism 6. […] The values are given as the mean with SD of at least three independent experiments.
row,SMILES,LD25
1,"Cc1cc(N2CCOCC2)nc(N2CCOCC2)c1CNC(=O)Cc1cc(F)cc(F)c1 [55b, 2-(3,5-Difluorophenyl)-N-[(4-methyl-2,6-dimorpholinopyridin-3-yl)methyl]acetamide]",24 ± 5 µM
2,"CC(C)CNC(=O)c1ccc(NCc2ccc(F)cc2)cc1N [compound 17, 2-Amino-4-[(4-fluorobenzyl)amino]-N-isobutylbenzamide]",>125 µM

# Same assay, conditions: TAMH cells, MTT assay, 24 h exposure; 50% reduction of viability
row,SMILES,LD50
1,"Cc1cc(N2CCOCC2)nc(N2CCOCC2)c1CNC(=O)Cc1cc(F)cc(F)c1 [55b, 2-(3,5-Difluorophenyl)-N-[(4-methyl-2,6-dimorpholinopyridin-3-yl)methyl]acetamide]",>250 µM
2,"CC(C)CNC(=O)c1ccc(NCc2ccc(F)cc2)cc1N [compound 17, 2-Amino-4-[(4-fluorobenzyl)amino]-N-isobutylbenzamide]",>125 µM

# System: HEP-G2 cells
# Experiment: MTT cell viability assay, HEP-G2 cells
# Details: HEP-G2 cells, MTT assay, 24 h exposure; 25% reduction of viability
# Description: as §1, §2, §3
row,SMILES,LD25
1,"Cc1cc(N2CCOCC2)nc(N2CCOCC2)c1CNC(=O)Cc1cc(F)cc(F)c1 [55b, 2-(3,5-Difluorophenyl)-N-[(4-methyl-2,6-dimorpholinopyridin-3-yl)methyl]acetamide]",20 ± 7 µM
2,"CC(C)CNC(=O)c1ccc(NCc2ccc(F)cc2)cc1N [compound 17, 2-Amino-4-[(4-fluorobenzyl)amino]-N-isobutylbenzamide]",56 ± 40 µM

# Same assay, conditions: HEP-G2 cells, MTT assay, 24 h exposure; 50% reduction of viability
row,SMILES,LD50
1,"Cc1cc(N2CCOCC2)nc(N2CCOCC2)c1CNC(=O)Cc1cc(F)cc(F)c1 [55b, 2-(3,5-Difluorophenyl)-N-[(4-methyl-2,6-dimorpholinopyridin-3-yl)methyl]acetamide]",>250 µM
2,"CC(C)CNC(=O)c1ccc(NCc2ccc(F)cc2)cc1N [compound 17, 2-Amino-4-[(4-fluorobenzyl)amino]-N-isobutylbenzamide]",>125 µM

# System: not listed separately
# Experiment: log D7.4 estimation by HPLC-based method
# Format: physicochemical
# Details: HPLC, Phenomenex Luna 5 μm Phenyl-Hexyl column, pH 7.4, HPLC, calibration A1; read-out: logD7.4
# Experimental: The log D7.4 values were estimated using a common HPLC-based method in accordance with guideline OPPTS 830.7570 of the United States Environmental Protection Agency (EPA). The HPLC measurements were performed with a Phenomenex Luna 5 μm Phenyl-Hexyl 100 Å column (150 × 4.6 mm). […]. Uracil was used to measure the unretained peak time. To obtain a calibration function, the logarithm of the capacity factors for the reference substances was then plotted against the corresponding log P values taken from the mentioned guideline, which are equivalent to the log D7.4 values for non-ionizable compounds like the reference substances used for calibration. With this calibration function, it was possible to estimate the log D7.4 value from the corresponding retention time for each compound to be tested. For the measurement, 2 mg of the reference substances was each dissolved in 1 mL of methanol. A reference mixture was then obtained by combining 50 μL of each reference solution. The reference mixture was measured before and after the substances to be tested. The mean value from both measurements was used for the calibration line. The substances to be tested were injected as a solution in methanol (2 mg/mL), and the retention time was determined as the mean value from two measurements.
row,SMILES,chromatographic logD
1,"Cc1cc(N2CCOCC2)nc(N2CCOCC2)c1CNC(=O)Cc1cc(F)cc(F)c1 [55b, 2-(3,5-Difluorophenyl)-N-[(4-methyl-2,6-dimorpholinopyridin-3-yl)methyl]acetamide]",3.52

# Same assay, conditions: HPLC, Phenomenex Luna 5 μm Phenyl-Hexyl column, pH 7.4, HPLC, calibration B1; read-out: logD7.4
row,SMILES,chromatographic logD
1,"Cc1cc(N2CCOCC2)nc(N2CCOCC2)c1CNC(=O)Cc1cc(F)cc(F)c1 [55b, 2-(3,5-Difluorophenyl)-N-[(4-methyl-2,6-dimorpholinopyridin-3-yl)methyl]acetamide]",3.53

# Same assay, conditions: HPLC, Phenomenex Luna 5 μm Phenyl-Hexyl column, pH 7.4, HPLC, calibration C; read-out: logD7.4
row,SMILES,chromatographic logD
1,"CC(C)CNC(=O)c1ccc(NCc2ccc(F)cc2)cc1N [compound 17, 2-Amino-4-[(4-fluorobenzyl)amino]-N-isobutylbenzamide]",2.75

# Same assay, conditions: HPLC, Phenomenex Luna 5 μm Phenyl-Hexyl column, pH 7.4, HPLC, calibration D; read-out: logD7.4
row,SMILES,chromatographic logD
1,"CC(C)CNC(=O)c1ccc(NCc2ccc(F)cc2)cc1N [compound 17, 2-Amino-4-[(4-fluorobenzyl)amino]-N-isobutylbenzamide]",2.75

# Same assay, conditions: HPLC, Phenomenex Luna 5 μm Phenyl-Hexyl column, pH 7.4, HPLC, mean of two calibrations; read-out: logD7.4 (mean)
row,SMILES,chromatographic logD
1,"Cc1cc(N2CCOCC2)nc(N2CCOCC2)c1CNC(=O)Cc1cc(F)cc(F)c1 [55b, 2-(3,5-Difluorophenyl)-N-[(4-methyl-2,6-dimorpholinopyridin-3-yl)methyl]acetamide]",3.5
2,"CC(C)CNC(=O)c1ccc(NCc2ccc(F)cc2)cc1N [compound 17, 2-Amino-4-[(4-fluorobenzyl)amino]-N-isobutylbenzamide]",2.7

# Same assay, conditions: HPLC, Phenomenex Luna 5 μm Phenyl-Hexyl column, pH 7.4, estimated by HPLC-based method, pH 7.4; read-out: log D7.4
row,SMILES,chromatographic logD
1,"Cc1cc(N2CCOCC2)nc(N2CCOCC2)c1CNC(=O)Cc1cc(F)cc(F)c1 [55b, 2-(3,5-Difluorophenyl)-N-[(4-methyl-2,6-dimorpholinopyridin-3-yl)methyl]acetamide]",3.5
2,"CC(C)CNC(=O)c1ccc(NCc2ccc(F)cc2)cc1N [compound 17, 2-Amino-4-[(4-fluorobenzyl)amino]-N-isobutylbenzamide]",2.7

# Reference: article PMC8908504 (ACS Omega, 2022)
